{
  "source": "paper PMC8797470",
  "about": "“Disruption of the pentraxin 3/CD44 interaction as an efficient therapy for triple‐negative breast cancers” (Clinical and Translational Medicine, 2022)",
  "key": {"[1]": {"tested_on": "RANKL, MMP2, NANOG and TWIST2 transcription in MDA-MB-231 cells", "assay": "Real-time quantitative PCR of PTX3-induced genes", "format": "cell-based, human", "conditions": "MDA-MB-231 cells, with PTX3 treatment", "from_the_text": "TRIsure RNA extraction reagent (Invitrogen) extracted total RNA. SuperScript™ III Reverse Transcriptase (Invitrogen) was used to synthesis cDNA. Next, SensiFAST™ SYBR (BIOLINE) was applied to perform real‐time quantitative PCR (Q‐PCR) assay. CFX connect Real‐Time PCR System (BIO‐RAD) executed real‐time fluorescence monitoring and the melting curve analysis according to the manufacturer's recommendations. The following pairs of specific primers—human CEBPD (F): 5′‐[…]‐3′ and CEBPD (R): 5′‐[…]‐3′, human PTX3 (F): 5′‐ […]‐3′ and PTX3 (R): 5′‐ […]‐3′, human MMP2 (F): 5′‐ […]‐3′ and MMP2 (R): 5′‐ […]‐3′, human RANKL (F): 5′‐ AGAGC GCAGATGGATCCTAA‐3′ and RANKL (R): 5′‐ TTCCTTTTGCACAGC TCCTT‐3′, human TWIST2 (F): 5′‐[…]‐3′ and TWIST2 (R): 5′‐[…]‐3′, human NANOG (F): 5′‐[…]‐3′ and NANOG (R): 5′‐ […]‐3′, human GAPDH (F): 5′‐ […]‐3′ and GAPDH (R): 5′‐ […]‐3′."}, "PTX3/CD44 interaction": {"biological_target": "T1, PTX3/CD44 interaction (Homo sapiens, UniProt P16070)", "T1 construct": "purchased Sino Biological Inc. (CD44) 12211-H08H", "T1 sequence (P16070 21-220 limits assumed)": "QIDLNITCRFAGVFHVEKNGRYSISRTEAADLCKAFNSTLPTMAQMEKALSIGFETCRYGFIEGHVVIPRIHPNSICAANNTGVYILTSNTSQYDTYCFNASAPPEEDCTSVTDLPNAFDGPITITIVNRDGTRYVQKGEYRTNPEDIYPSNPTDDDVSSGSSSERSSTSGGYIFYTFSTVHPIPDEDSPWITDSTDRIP", "assay": "Competitive binding ELISA of HRP-conjugated PTX3 to immobilised CD44", "conditions": "biotinylated peptide 2 h, then 5 μg/ml HRP-conjugated PTX3 1 h at RT", "protocol": "Plate wells (9018; Corning Costar) were coated with 10 μg/ml of CD44 (12211‐H08H; Sino Biological Inc.) in PBS (pH 7.2) and then blocking for 1 h with the blocking buffer including 3% milk in PBS. For the stability binding experiments, the PTX3‐devired biotinylated peptides were pre‐incubated in serum for 1, 2, 4 or 6 h. For the binding experiments, the horseradish peroxidase (HRP)‐conjugated recombinant PTX3, PTX3/N, PTX3/C and PTX3NA or PTX3‐devired biotinylated peptides AD9, GR9, P2rdAD9 and P12rdGR9 (32310; LEADGENE) was responded in the well for 2 h. For the peptide of competition experiments, the PTX3‐devired biotinylated peptides RI37 and GI40 were diluted at the indicated concentration in PBS. After 2 h, PBS washed three times and then incubated with 5 μg/ml HRP‐conjugated PTX3 in PBS for 1 h at room temperature (RT). For the antibody competition experiments, Ab‐10 and Ab‐49 were incubated with 5 μg/ml HRP‐conjugated PTX3 in PBS for 2 h at RT. After incubation, the mixtures was responded in the well for 1 h at RT and then PBS washed three times, tetramethyl benzidine (TMB) was used to detect the bound HRP conjugate. After 15 min, the peroxidase reaction was stopped by adding 0.1 M H2SO4. Next, ELISA plate reader was used to detect the optical densities at 450 nm."}},
  "note": "Ends that are not written are not given here.",
  "data": [
    {"substance": "GI40: peptide, PTX3 amino acids 320–359 (GGGFDETLAFSGRLTGFNIWDSVLSNEEIRETGGAESCHI; also: biotin, position not given here)", "values": [
      {"measurement": "PTX3-induced transcription of RANKL, MMP2, NANOG and TWIST2", "setting": "[1]", "value": "suppressed"},
      {"measurement": "binding of PTX3 and CD44 in competition with peptide", "setting": "PTX3/CD44 interaction", "value": "attenuated"}
    ]},
    {"substance": "RI37: peptide, PTX3 amino acids 200–236 (RPMRLESFSACIWVKATDVLNKTILFSYGTKRNPYEI; also: biotin, position not given here)", "values": [
      {"measurement": "PTX3-induced transcription of RANKL, MMP2, NANOG and TWIST2", "setting": "[1]", "value": "suppressed"},
      {"measurement": "binding of PTX3 and CD44 in competition with peptide", "setting": "PTX3/CD44 interaction", "value": "attenuated"}
    ]}
  ]
}
